From patent US8697839B2, “GQ protein competitive inhibitory polypeptides, preparation methods and uses thereof” (Third Military Medical University, priority 2008, dated 2014)
Marks after values point to notes of the source that are not given here.

Experiments:
[1] = tested on: myocardial hypertrophy in rats induced by aortic coarctation; assay: myocardial hypertrophy in rats induced by aortic coarctation; type: in vivo, Wistar rats; conditions: 15 μg/kg ip once a day, 3 weeks post operation; x ± SEM
From the text: Healthy male Wistar rats (purchased from Center for Experimental Animals, Third Military Medical University) were randomly assigned into the following groups: the sham-operation group, operation model group (SRS), and polypeptide-dosing group. Before the operation, animals were fasted overnight and given Ad libitum access to water, and then anesthetized with pentobarbital sodium and underwent celiotomy. The abdominal aorta was separated, and a […] needle (0.80 mm outer diameter) was fastened along the abdominal aorta above the right renal artery with a silk suture before the needle was quickly removed. Then, the abdomen was closed by suturation. The rats in the sham operation group were subjected to the same treatment as the aforementioned, except no ligation with silk suture. From the first day post operation, the rats in the sham operation control group and in the operation model group were administrated with physiological saline at 7.5 ml/kg, ip, once a day; the rats in the dosing group were administrated with the pentadecapeptide, heptacosapeptide, and pantapentacontapeptide at 15 μg/kg respectively, ip, once a day. Rats were reared routinely for 3 weeks and then sacrificed. The heart was removed by thoracotomy, washed with the chilled physiological saline to get rid of blood stain, blotted with filter paper. The heart and the left ventricle were weighed on a scale.

[2] = tested on: myocardial hypertrophy in mice induced by norepinephrine; assay: myocardial hypertrophy in mice induced by norepinephrine; type: in vivo
Description: Fifty of the mice used in the experiment (purchased from Center for Experimental Animals, Third Military Medical University) was assigned into five groups with 10 mice per group. The mice in the control group were administrated with 0.1% ascorbic acid-3 mg % potassium sodium tartrate-physiological saline, The mice in the model group were administrated with 0.1% ascorbic acid-6 mg % norepinephrine bitartrate-physiological saline (equivalent to 1.5 mg/kg NE); The mice in three dosing groups were administrated with the pentadecapeptide, the heptacosapeptide, and the pantapentacontapeptide at 30 μg/kg respectively, while administration of 0.1% ascorbic acid—6 mg % norepinephrine bitartrate—physiological saline. The administration was performed consecutively by intraperitoneal injection (ip), twice a day (bid), for 15 days. The dosing volumes for each group were 50 ml/kg. Then, the animals were sacrificed by cervical dislocation. The heart was removed by thoracotomy, washed with the chilled physiological saline to get rid of blood stain, blotted with filter paper, weighed on a scale. The atriums and the right ventricle were carefully removed (with the interventricular septum left), and the left ventricle was weighed.

[3] = tested on: hypertrophic cardiocyte induced by angiotensin II; assay: protein content in rat cardiocyte hypertrophy induced by angiotensin II (Lowry method); type: cell-based
Description: 1. The cardiocytes were cultured for 48 h in the same way as described above, then subjected to replacement of the DMEM with a serum-free DMEM culture media, and further cultured for 24 h before addition of a drug according to the following groups: normal control group: 10 μl of PBS was added; Ang II group; Ang II was added at 1 μmol/L; serial polypeptide-dosed group: Ang II was added, while each of the dodecapeptide, pentadecapeptide, heptacosapeptide, pantapentacontapeptide was added at 10 nmol/L.
2. After addition of the drug, the cells were further cultured for 24 h and then the culture media was discarded. The culture was washed with PBS, followed by adding 0.5 ml of 5% trichloracetic acid per well, and left at 4° C. for 1 h. The precipitate was dissolved in 1 ml of 0.1 mol/L NaOH. The protein content was determined by Lowry method.

[4] = tested on: myocardial hypertrophy in rats induced by norepinephrine; assay: myocardial hypertrophy in rats induced by norepinephrine; type: in vivo, Wistar rats
Description: Thirty of Wistar rats were selected and assigned into five groups with 6 rats per group. The rats in the control group were administrated with 0.1% ascorbic acid-3 mg % potassium sodium tartrate-physiological saline; the rats in the model group were administrated with 0.1% ascorbic acid-6 mg % norepinephrine bitartrate-physiological saline; the rats in the three dosing groups were administrated with the pentadecapeptide, the heptacosapeptide, and the pantapentacontapeptide at 15 μg/kg respectively, while administration of norepinephrine. The dosing volume for each group was 33 ml/kg, and the administration was performed consecutively by ip, bid, for 20 days. At that time, the heart and left ventricle were weighed.

[5] = tested on: rats with spontaneous hypertension (SHR); assay: myocardial remodeling and blood pressure in rats with spontaneous hypertension (SHR); type: in vivo, rat; conditions: for Systolic blood pressure of artery / EF (ejection fraction) / FS (shortening fraction) / IVST (intervertricular septum thickness) / LAD (left atrium sinistrum diameter) / LVEDD (left ventricular end diastolic diameter) / LVESD / PWT (left ventricular posterior wall thickness) / SV (stroke volume) / HI / HW / LVI / LVW / CSA (cross section area of the cardiocyte) / TDM (trans diameter of the cardiocyte): SHR, x ± s, n = 6; for EF (ejection fraction) / FS (shortening fraction) / IVST (intervertricular septum thickness) / LAD (left atrium sinistrum diameter) / LVEDD (left ventricular end diastolic diameter) / LVESD / PWT (left ventricular posterior wall thickness) / SV (stroke volume): echocardiography; for HI / HW / LVI / LVW: eight weeks
Description: 1. Thirty 13-week-old rats with spontaneous hypertension (SHR, purchased from Beijing Vital River Laboratory Animal Technology Co. Ltd., Beijing) were selected and randomly assigned into five groups with 6 rats per group:
SHR model group (Vehicle): 0.9% physiological saline, intraperitoneal injection at a dosage of 5 ml/kg, bid.
Positive control group (losartan): potassium losartan at a dosage of 6 mg/kg, intragastric administration, qd.
The pentadecapeptide group: administration of the pentadecapeptide at a dosage of 30 μg/kg by intraperitoneal injection, bid.
The heptacosapeptide group: administration of the heptacosapeptide at a dosage of 30 μg/kg by intraperitoneal injection, bid.
The pantapentacontapeptide group: administration of the pantapentacontapeptide at a dosage of 30 μg/kg by intraperitoneal injection, bid.
Six of INKY (Wistar-Kyoto) rats (purchased from Center for Experimental Animals, Third Military Medical University) were additionally selected as the normal control.
2. Intervention with the drug was performed consecutively for eight weeks (from Week 14 to Week 21). The body weights of all the tested rats were obtained once every two weeks, and the administration dosage was adjustedbased on body weights.

[6] = tested on: cultured cardiocytes of the rats (hypertrophy induced by NE); assay: protein content in rat cardiocyte hypertrophy induced by norepinephrine (Lowry method); type: cell-based, Wistar rats
From the text: 1. Wistar rats 1-3 day postpartum (purchased from Center for Experimental Animal, Third Military Medical University) was used, sacrificed by cervical dislocation, and fixed on a dissecting table. The ventral skin of the corpus was disinfected with 2% iodine tincture and then 75% ethanol. The heart was removed, cutted into pieces of about 1-3 mm^3, digested repeatedly with a digestion solution containing 0.08% trypase, 0.02% EDTA, and 0.05% collogen. The cells were collected in DMEM containing 10% fetal bovine serum and cultured in an incubator at 37° C., 5% CO2.
2. The cardiocytes cultured for 48 h were subjected to replacement of the DMEM with a serum-free DMEM culture media and further cultured for 24 h before addition of a drug according to the following groups: • Normal control group; 10 μl of PBS was added. • Norepinephrine group; norepinephrine (NE, Serva Corporation, USA) was added at 1 μmol/L. • Polypeptide-dosed group: NE was added, while the corresponding polypeptide drug was added at 10 nmol/L.
3. After addition of the drug, the cells were further cultured for 24 h and then the culture media was discarded. The culture was washed with PBS, followed by adding 0.5 ml of 5% trichloracetic acid per well, and left at 4° C. for 1 h. The precipitate was dissolved in 1 ml of 0.1 mol/L NaOH. The protein content was determined by Lowry method.

[7] = clinical dosage converted into the dosage in the mouse; cited from earlier work
[8] = polypeptide 30 μg/kg ip bid 15 days with NE, x ± s
[9] = polypeptide 15 μg/kg ip bid 20 days with norepinephrine, n = 6, x ± s
[10] = losartan 6 mg/kg intragastric qd

Pentadecapeptide: SEQ ID NO: 9, obtained by deleting amino acid residues 1 to 40 at the N-terminal of SEQ ID NO: 1 (KDTILQLNLKEYNLV; listed as Homo sapiens)
HI [1]: 3.39 ± 0.10 mg/g
HW [1]: 706 ± 30.8 mg
LVI [1]: 2.01 ± 0.06 mg/g
LVW [1]: 418 ± 12.3 mg
decrease of heart weight ([2]; 30 μg/kg ip bid 15 days with NE, P>0.05): 9.9%
HI (heart index) [2, 8]: 4.27 ± 0.42 mg/g
HW (heart weight) [2, 8]: 100.9 ± 12.8 mg
LVI (left ventricular index or myocardial hypertrophy index) [2, 8]: 3.16 ± 0.39 mg/g
LVW (left ventricular weight) [2, 8]: 74.7 ± 9.25 mg
effect on protein content in the cardiocyte in comparison with Ang II ([3]; polypeptide 10 nmol/L + Ang II): decrease the protein content in the cardiocyte in varying degrees
Protein content ([3]; polypeptide 10 nmol/L together with Ang II 1 μmol/L, 24 h, n = 6, x ± s): 130.6 ± 10.79 μg/10^5 cells
effect on the left ventricular index ([4]; 15 μg/kg ip bid 20 days with norepinephrine): significantly decrease
HI (heart index) [4, 9]: 3.580 ± 0.226 g/kg
HW (heart weight) [4, 9]: 0.673 ± 0.055 g
LVI (left ventricular index or myocardial hypertrophy index) [4, 9]: 2.606 ± 0.154 g/kg
LVW (left ventricular weight) [4, 9]: 0.490 ± 0.038 g
Systolic blood pressure of artery ([5]; 0 w, polypeptide 30 μg/kg ip bid): 177.3 ± 6.42 mmHg
Systolic blood pressure of artery ([5]; 2 w, polypeptide 30 μg/kg ip bid): 190.4 ± 7.75 mmHg
Systolic blood pressure of artery ([5]; 4 w, polypeptide 30 μg/kg ip bid): 200.2 ± 4.13 mmHg
Systolic blood pressure of artery ([5]; 6 w, polypeptide 30 μg/kg ip bid): 217.1 ± 8.82 mmHg
Systolic blood pressure of artery ([5]; 8 w, polypeptide 30 μg/kg ip bid): 224.1 ± 6.37 mmHg
EF (ejection fraction) ([5]; polypeptide 30 μg/kg ip bid): 89.4 ± 3.90%
FS (shortening fraction) ([5]; polypeptide 30 μg/kg ip bid): 55.1 ± 4.33%
IVST (intervertricular septum thickness) ([5]; polypeptide 30 μg/kg ip bid): 1.62 ± 0.20 mm
LAD (left atrium sinistrum diameter) ([5]; polypeptide 30 μg/kg ip bid): 3.39 ± 0.33 mm
LVEDD (left ventricular end diastolic diameter) ([5]; polypeptide 30 μg/kg ip bid): 5.38 ± 0.31 mm
LVESD ([5]; polypeptide 30 μg/kg ip bid): 2.41 ± 0.35 mm
PWT (left ventricular posterior wall thickness) ([5]; polypeptide 30 μg/kg ip bid): 1.96 ± 0.16 mm
SV (stroke volume) ([5]; polypeptide 30 μg/kg ip bid): 0.32 ± 0.05 mL
HI ([5]; polypeptide 30 μg/kg ip bid): 3.44 ± 0.05 mg/g
HW ([5]; polypeptide 30 μg/kg ip bid): 1055 ± 30 mg
LVI ([5]; polypeptide 30 μg/kg ip bid): 2.46 ± 0.04 mg/g
LVW ([5]; polypeptide 30 μg/kg ip bid): 775 ± 28 mg
CSA (cross section area of the cardiocyte) ([5]; polypeptide 30 μg/kg ip bid): 329 ± 24** μm^2
TDM (trans diameter of the cardiocyte) ([5]; polypeptide 30 μg/kg ip bid): 14.88 ± 2.56 μm
Protein content ([6]; polypeptide 10 nmol/L together with NE 1 μmol/L, 24 h, n = 6, x ± s): 104.3 ± 12.6 μg/10^5 cells
effect on protein content in the hypertrophic cardiocyte induced by NE ([6]; polypeptide at 10 nmol/L): significantly decrease

CCCCc1nc(Cl)c(CO)n1Cc1ccc(-c2ccccc2-c2nn[nH]n2)cc1 [Losartan, potassium losartan]
Systolic blood pressure of artery ([5]; 0 w, losartan 6 mg/kg intragastric qd): 178.3 ± 2.24 mmHg
Systolic blood pressure of artery ([5]; 2 w, losartan 6 mg/kg intragastric qd): 165.1 ± 4.80 mmHg
Systolic blood pressure of artery ([5]; 4 w, losartan 6 mg/kg intragastric qd): 177.1 ± 8.27 mmHg
Systolic blood pressure of artery ([5]; 6 w, losartan 6 mg/kg intragastric qd): 178.3 ± 6.23 mmHg
Systolic blood pressure of artery ([5]; 8 w, losartan 6 mg/kg intragastric qd): 172.6 ± 4.82 mmHg
EF (ejection fraction) [5, 10]: 88.8 ± 2.62%
FS (shortening fraction) [5, 10]: 53.6 ± 3.57%
IVST (intervertricular septum thickness) [5, 10]: 1.87 ± 0.18 mm
LAD (left atrium sinistrum diameter) [5, 10]: 3.25 ± 0.23 mm
LVEDD (left ventricular end diastolic diameter) [5, 10]: 5.05 ± 0.42 mm
LVESD [5, 10]: 2.33 ± 0.18 mm
PWT (left ventricular posterior wall thickness) [5, 10]: 2.25 ± 0.21 mm
SV (stroke volume) [5, 10]: 0.21 ± 0.04 mL
HI [5, 10]: 3.48 ± 0.05 mg/g
HW [5, 10]: 1003 ± 16 mg
LVI [5, 10]: 2.74 ± 0.28 mg/g
LVW [5, 10]: 789 ± 88 mg
morphology of the cardiac muscle tissues, light microscope ([5]; losartan 6 mg/kg intragastric qd, FIG. 2): Pathological changes are somewhat improved
ultrastructure of the SHR cardiocyte, transmission electron microscope ([5]; losartan 6 mg/kg intragastric qd, FIG. 5): morphology of the cellular nucleus is essentially normal and somewhat irregular
CSA in comparison with the model group ([5]; losartan 6 mg/kg intragastric qd, P<0.01): significantly decreased
CSA (cross section area of the cardiocyte) [5, 10]: 335 ± 20** μm^2
TDM (trans diameter of the cardiocyte) [5, 10]: 13.83 ± 2.54 μm
ratio of mouse LD50/routine dosage [7]: 349

C[C@H](CS)C(=O)N1CCC[C@H]1C(=O)O [captopril]
ratio of mouse LD50/routine dosage [7]: 388
